For 32 compounds, IC50 results are on record in patent US8378104B2 (OSI Pharmaceuticals, LLC, priority 2010, dated 2013).

Structures can show the parent of a compound that is named as a salt.

The target of the assay is T1, TAK1-TAB1 fusion protein (Homo sapiens, UniProt O43318).
T1 construct: purchased Carna
T1 sequence (O43318 with tags, fused parts or gaps limits assumed): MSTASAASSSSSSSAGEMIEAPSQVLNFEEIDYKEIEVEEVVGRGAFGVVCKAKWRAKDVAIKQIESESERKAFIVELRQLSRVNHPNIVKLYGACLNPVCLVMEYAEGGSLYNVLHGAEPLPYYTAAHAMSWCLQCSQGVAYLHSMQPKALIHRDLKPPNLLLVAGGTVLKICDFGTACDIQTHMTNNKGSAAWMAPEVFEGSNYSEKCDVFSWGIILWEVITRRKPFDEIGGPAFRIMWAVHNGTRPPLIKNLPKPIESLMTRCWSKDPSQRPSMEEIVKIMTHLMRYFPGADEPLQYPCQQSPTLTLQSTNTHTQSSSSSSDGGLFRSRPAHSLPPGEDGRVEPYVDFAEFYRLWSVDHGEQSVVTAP
Kind of assay: TAK1 biochemical assay (AlphaScreen, GST-MAP2K7 substrate). To be noted: TAK1-TAB1 fusion protein, GST-MAP2K7 substrate; read-out: mean TAK1 IC50 (Col. A).
One may read the IC50 as the midpoint of a concentration-inhibition curve. Turning to `CC(=O)N1CCC(n2cc(-c3cnc(N)c4oc(-c5csc6cc(=O)n(C)cc56)cc34)cn2)CC1` [Example 258, 3-{4-[1-(1-acetylpiperidin-4-yl)-1H-pyrazol-4-yl]-7-aminofuro[2,3-c]pyridin-2-yl}-5-methylthieno[3,2-c]pyridin-6(5H)-one trifluoroacetic Acid Salt], the IC50 lay within 1000 to 10000 nM.
As for `COc1c(-c2cnc(N)c3oc(-c4csc5cnccc45)cc23)cnn1C` [Example 344, 4-(5-methoxy-1-methyl-1H-pyrazol-4-yl)-2-thieno[2,3-c]pyridin-3-yl-furo[2,3-c]pyridin-7-ylamine], the IC50 is 100 to 1000 nM.
On to `Nc1ncc(-c2cnn(C3CCNCC3)c2)c2cc(-c3cccc(-c4nnn[nH]4)c3)oc12` [Example 40, 4-[1-(piperidin-4-yl)-1H-pyrazol-4-yl]-2-[3-(1H-tetrazol-5-yl)phenyl]furo[2,3-c]pyridine-7-amine], for which the IC50 was 1000 to 10000 nM.
As to `Nc1ccc(-c2cc3c(-c4cnn(C5CCNCC5)c4)cnc(N)c3o2)cn1` [Example 20, 2-(6-aminopyridin-3-yl)-4-[1-(piperidin-4-yl)-1H-pyrazol-4-yl]furo[2,3-c]pyridine-7-amine], the IC50 was 1000 to 10000 nM.
In the case of `Cc1nn([C@H]2CC[C@H](O)CC2)cc1-c1cnc(N)c2oc(-c3csc4cnccc34)cc12` [Example 304, 4-[4-(7-amino-2-thieno[2,3-c]pyridin-3-yl-furo[2,3-c]pyridin-4-yl)-3-methyl-pyrazol-1-yl]-cyclohexanol], the IC50 is 1000 to 10000 nM.
In the case of `Nc1ncc(-c2cnn(C3CCNCC3)c2)c2cc(-c3cccc4ccccc34)oc12` [Example 3, 2-(naphthalen-1-yl)-4-[1-(piperidin-4-yl)-1H-pyrazol-4-yl]furo[2,3-c]pyridin-7-amine] it was 1000 to 10000 nM; in that of `CC(=O)N1CCC(n2cc(-c3cnc(N)c4oc(-c5cccc(C(=O)N6CCOCC6)c5)cc34)cn2)CC1` [Example 127, 1-[4-(4-{7-amino-2-[3-(morpholin-4-ylcarbonyl)phenyl]furo[2,3-c]pyridin-4-yl}-1H-pyrazol-1-yl)piperidin-1-yl]ethanone], 1000 to 10000 nM.
With `CCOc1cc2c(-c3cc4c(-c5cnn(C6CCN(C(C)=O)CC6)c5)cnc(N)c4o3)csc2cn1` [Example 245, 1-(4-{4-[7-amino-2-(5-ethoxythieno[2,3-c]pyridin-3-yl)furo[2,3-c]pyridin-4-yl]-1H-pyrazol-1-yl}piperidin-1-yl)ethanone bis(trifluoroacetate)], the IC50 was in the range of 100 to 1000 nM.
On to `CC(=O)N1CCC(n2cc(-c3cnc(N)c4oc(-c5ccc(NS(C)(=O)=O)cc5)cc34)cn2)CC1` [Example 121, N-(4-{4-[1-(1-acetylpiperidin-4-yl)-1H-pyrazol-4-yl]-7-aminofuro[2,3-c]pyridin-2-yl}phenyl)methanesulfonamide], for which the IC50 was 1000 to 10000 nM.
On to `COc1c(F)cccc1-c1cc2c(-c3cnn(C4CCNCC4)c3)cnc(N)c2o1` [Example 5, 2-(3-fluoro-2-methoxyphenyl)-4-[1-(piperidin-4-yl)-1H-pyrazol-4-yl]furo[2,3-c]pyridin-7-amine dihydrochloride], for which the IC50 was in the range of 1000 to 10000 nM.
In the case of `Nc1ncc(-c2cnn(C3CCNCC3)c2)c2cc(-c3cc(F)cc(F)c3)oc12` [Example 8, 2-(3,5-difluorophenyl)-4-[1-(piperidin-4-yl)-1H-pyrazol-4-yl]furo[2,3-c]pyridin-7-amine], the IC50 is 1000 to 10000 nM.
With `Nc1ncc(-c2ccc(-c3ccccc3)s2)c2cc(-c3csc4cnccc34)oc12` [Example 385, 4-(5-phenyl-thiophen-2-yl)-2-thieno[2,3-c]pyridin-3-yl-furo[2,3-c]pyridin-7-ylamine], the IC50 is over 10000 nM.
On to `COC(=O)c1ccc(-c2cnc(N)c3oc(-c4csc5cnccc45)cc23)s1` [Example 382, 5-(7-amino-2-thieno[2,3-c]pyridin-3-yl-furo[2,3-c]pyridin-4-yl)-thiophene-2-carboxylic acid methyl ester], for which the IC50 was over 10000 nM.
Take `CC(=O)N1CCC(n2cc(-c3cnc(N)c4oc(-c5ccc(C#N)cc5)cc34)cn2)CC1` [Example 170, 4-{4-[1-(1-acetylpiperidin-4-yl)-1H-pyrazol-4-yl]-7-aminofuro[2,3-c]pyridin-2-yl}benzonitrile]: the IC50 is 1000 to 10000 nM.
Take `CC(=O)N1CCC(n2cc(-c3cnc(N)c4oc(-c5cccc(OCC(C)C)c5)cc34)cn2)CC1` [Example 204, 1-[4-(4-{7-amino-2-[3-(2-methylpropoxy)phenyl]furo[2,3-c]pyridin-4-yl}-1H-pyrazol-1-yl)piperidin-1-yl]ethanone]: the IC50 is over 10000 nM.
As for `CC(=O)N1CCC(n2cc(-c3cnc(N)c4oc(-c5cccc(OCC6CCCCC6)c5)cc34)cn2)CC1` [Example 209, 1-[4-(4-{7-amino-2-[3-(cyclohexylmethoxy)phenyl]furo[2,3-c]pyridin-4-yl}-1H-pyrazol-1-yl)piperidin-1-yl]ethanone], the IC50 is over 10000 nM.
Consider `CC(=O)N1CCC(n2cc(-c3cnc(N)c4oc(-c5cccc(OC(C)C)c5)cc34)cn2)CC1` [Example 165, 1-[4-(4-{7-amino-2-[3-(propan-2-yloxy)phenyl]furo[2,3-c}pyridin-4-yl}-1H-pyrazol-1-yl)piperidin-1-yl}ethanone], for which the IC50 lay in the range of 1000 to 10000 nM.
Take `Nc1ccc(-c2nc(-c3cc4c(-c5cnn(C6CCNCC6)c5)cnc(N)c4o3)ccc2N)nc1Cl` [Example 30, 6-{7-amino-4-[1-(piperidin-4-yl)-1H-pyrazol-4-yl]furo[2,3-c]pyridine-2-yl}-6′-chloro-2,2′-bipyridine-3,5′-diamine]: the IC50 lay in the range of 100 to 1000 nM.
In the case of `Cn1ncc2cccc(-c3cc4c(-c5cnn([C@H]6CC[C@H](O)CC6)c5)cnc(N)c4o3)c21` [Example 357, trans-4-{4-[7-amino-2-(1-methyl-1H-indazol-7-yl)furo[2,3-c]pyridin-4-yl]-1H-pyrazol-1-yl}cyclohexanol], the IC50 was 1000 to 10000 nM.
Regarding `CC(=O)N1CCC(n2cc(-c3cnc(N)c4oc(-c5cnc6ccccc6c5)cc34)cn2)CC1` [Example 168, 1-(4-{4-[7-amino-2-(quinolin-3-yl)furo[2,3-c]pyridin-4-yl]-1H-pyrazol-1-yl}piperidin-1-yl)ethanone], the IC50 lay in the range of 1000 to 10000 nM.
With `Cc1ncc(-c2cnc(N)c3oc(-c4csc5cnccc45)cc23)n1C` [Example 397, 4-(2,3-dimethyl-3H-imidazol-4-yl)-2-thieno[2,3-c]pyridin-3-yl-furo[2,3-c]pyridin-7-ylamine] the figure was 1000 to 10000 nM; with `Nc1ncc(-c2cnn(C3CCNCC3)c2)c2cc(-c3ccsc3)oc12` [Example 28, 4-[1-(piperidin-4-yl)-1H-pyrazol-4-yl]-2-(thiophen-3-yl)furo[2,3-c]pyridine-7-amine], 1000 to 10000 nM; with `Nc1ncc(-c2cnn([C@H]3CC[C@H](O)CC3)c2)c2cc(-c3ccc4cn[nH]c4c3)oc12` [Example 406, trans-4-{4-[7-amino-2-(1H-indazol-6-yl)furo[2,3-c]pyridin-4-yl]-1H-pyrazol-1-yl}cyclohexanol], 100 to 1000 nM.
As to `CC(=O)N1CCC(n2cc(-c3cnc(N)c4oc(-c5cccc(OCCC(C)C)c5)cc34)cn2)CC1` [Example 208, 1-[4-(4-{7-amino-2-[3-(3-methylbutoxy)phenyl]furo[2,3-c]pyridin-4-yl}-1H-pyrazol-1-yl)piperidin-1-yl]ethanone], the IC50 is over 10000 nM.
For the compound `Cc1csc(-c2cnc(N)c3oc(-c4csc5cnccc45)cc23)c1` [Example 375, 4-(4-methyl-thiophen-2-yl)-2-thieno[2,3-c]pyridin-3-yl-furo[2,3-c]pyridin-7-ylamine], the IC50 lay within 1000 to 10000 nM.
With `CC(=O)N1CCC(n2cc(-c3cnc(N)c4oc(-c5cccc(N(C)C)c5)cc34)cn2)CC1` [Example 116], the IC50 is 1000 to 10000 nM.
In the case of `Nc1ncc(-c2cnn([C@H]3CC[C@H](O)CC3)c2)c2cc(-c3cc(-c4cccc(F)c4)cc4nnsc34)oc12` [Example 369, trans-4-(4-{7-amino-2-[5-(3-fluorophenyl)-1,2,3-benzothiadiazol-7-yl]furo[2,3-c]pyridin-4-yl}-1H-pyrazol-1-yl)cyclohexanol], the IC50 was in the range of 1000 to 10000 nM.
`CC(=O)N1CCC(n2cc(-c3cnc(N)c4oc(-c5cccc(OCc6ccccc6Cl)c5)cc34)cn2)CC1` [Example 166, 1-{4-[4-(7-amino-2-{3-[(2-chlorobenzyl)oxy]phenyl}furo[2,3-c]pyridin-4-yl)-1H-pyrazol-1-yl]piperidin-1-yl}ethanone]: the IC50 was over 10000 nM.
As to `Nc1ncc(-c2cnn(C3CCNCC3)c2)c2cc(-c3cccc4cccnc34)oc12` [Example 32, 4-[1-(piperidin-4-yl)-1H-pyrazol-4-yl]-2-(quinolin-8-yl)furo[2,3-c]pyridine-7-amine], the IC50 was 1000 to 10000 nM.
Take `CC(=O)N1CCC(n2cc(-c3cnc(N)c4oc(C5=CCC6(CC5)OCCO6)cc34)cn2)CC1` [Example 408, 1-(4-{4-[7-amino-2-(1,4-dioxaspiro[4.5]dec-7-en-8-yl)furo[2,3-c]pyridin-4-yl]-1H-pyrazol-1-yl}piperidin-1-yl)ethanone]: the IC50 is over 10000 nM.
For `CC(=O)N1CCC(n2cc(-c3cnc(N)c4oc(C5CCCC5)cc34)cn2)CC1` [Example 198, 1-{4-[4-(7-amino-2-cyclopentylfuro[2,3-c]pyridin-4-yl)-1H-pyrazol-1-yl]piperidin-1-yl}ethanone], the IC50 lay in the range of 1000 to 10000 nM.
`COc1cc(-c2cc3c(-c4cnn(C5CCN(C(C)=O)CC5)c4)cnc(N)c3o2)ccc1N` [Example 150, 1-(4-{4-[7-amino-2-(4-amino-3-methoxyphenyl)furo[2,3-c]pyridin-4-yl]-1H-pyrazol-1-yl}piperidin-1-yl)ethanone]: the IC50 lay within 1000 to 10000 nM.
